Data published in patent EP0412877A1, “Oral galenic form to improve bioavailability” (priority 1989, dated 1991).
Like-named read-outs stand apart in the source and are kept apart here.

Tests used:
[1] = In vitro dissolution kinetics in distilled water and intestinal juice; format: physicochemical; conditions: eau distillée and suc intestinal
[2] = Dissolution kinetics of dihydropyridines (figure 7); format: physicochemical; conditions: Nifédipine à l'état brut, oxodipine à l'état de coprécipité, without PROSOBEL
Text: On peut en conclure que le PROSOBEL, de façon très inattendue pour l'homme de métier, ralentit la dissolution en milieu aqueux, et permet l'obtention de formes pharmaceutiques originales et nouvelles, de dihydropyridines à biodisponibilité contrôlée.

[3] = human, in vivo
[4] = Solubility in water (stated in words); conditions: result in words
[5] = Plasma concentrations after single oral administration of oxodipine forms to 6 healthy subjects; conditions: human, 20 mg
Method: (§1) Des comprimés selon l'exemple 3, dosés à 15, 20 et 25mg d'oxodipine, ont été administrés à 6 volontaires sains.

[6] = human, in vivo, 0 min
Method: as §1

## CCOC(=O)C1=C(C)NC(C)=C(C(=O)OC)C1c1cccc2c1OCO2 (centres unmarked) [Poudre 20mg, 1,4-dihydro 4-(2′,3′-méthylènedioxyphényl) 3,5-pyridine dicarboxylatede méthyle et d'éthyle]
[1]
  cinétique de dissolution in vitro: lente et limitée
[2]
  cinétiques de dissolution: très rapides
[3]; 10.2 min
  % DE DOSE ENTRES DANS L'ORGANISME APRES ABSORPTION ET PASSAGE HEPATIQUE: 2,5%
[3]; 19.8 min
  % DE DOSE ENTRES DANS L'ORGANISME APRES ABSORPTION ET PASSAGE HEPATIQUE: 1,6%
[3]; 30 min
  % DE DOSE ENTRES DANS L'ORGANISME APRES ABSORPTION ET PASSAGE HEPATIQUE: 4,5%
[3]; 39.6 min
  % DE DOSE ENTRES DANS L'ORGANISME APRES ABSORPTION ET PASSAGE HEPATIQUE: 6,6%
[3]; 49.8 min
  % DE DOSE ENTRES DANS L'ORGANISME APRES ABSORPTION ET PASSAGE HEPATIQUE: 7,0%
[3]; 60 min
  % DE DOSE ENTRES DANS L'ORGANISME APRES ABSORPTION ET PASSAGE HEPATIQUE: 9,3%
[3]; 75 min
  % DE DOSE ENTRES DANS L'ORGANISME APRES ABSORPTION ET PASSAGE HEPATIQUE: 11%
[3]; 90 min
  % DE DOSE ENTRES DANS L'ORGANISME APRES ABSORPTION ET PASSAGE HEPATIQUE: 11,4%
[3]; 120 min
  % DE DOSE ENTRES DANS L'ORGANISME APRES ABSORPTION ET PASSAGE HEPATIQUE: 14,0%
[3]; 180 min
  % DE DOSE ENTRES DANS L'ORGANISME APRES ABSORPTION ET PASSAGE HEPATIQUE: 16,6%
[3]; 240 min
  % DE DOSE ENTRES DANS L'ORGANISME APRES ABSORPTION ET PASSAGE HEPATIQUE: 18%
[3]; 360 min
  % DE DOSE ENTRES DANS L'ORGANISME APRES ABSORPTION ET PASSAGE HEPATIQUE: 19,8%
[3]; 480 min
  % DE DOSE ENTRES DANS L'ORGANISME APRES ABSORPTION ET PASSAGE HEPATIQUE: 21,2%
[3]; 600 min
  % DE DOSE ENTRES DANS L'ORGANISME APRES ABSORPTION ET PASSAGE HEPATIQUE: 22,6%
[3]; 720 min
  % DE DOSE ENTRES DANS L'ORGANISME APRES ABSORPTION ET PASSAGE HEPATIQUE: 23,8%
  biodisponibilité: 31%
[3]; po
  BIODIOPONIBILITE RELATIVE PAR RAPPORT A LA SOLUTION: 31%
[4]
  solubilité dans l'eau: faible
[5]
  concentration at 0.17 h: 1.2 ng/mL
  concentration at 0.33 h: 1.4 ng/mL
  concentration at 0.5 h: 2.7 ng/mL
  concentration at 0.66 h: 4.2 ng/mL
  concentration at 0.83 h: 5 ng/mL
  concentration at 1 h: 6 ng/mL
  concentration at 1.25 h: 6.8 ng/mL
  concentration at 1.5 h: 6.5 ng/mL
  concentration at 2 h: 6.2 ng/mL
  concentration at 3 h: 5.1 ng/mL
  concentration at 4 h: 4 ng/mL
  concentration at 6 h: 2.4 ng/mL
  concentration at 8 h: 1.6 ng/mL
  concentration at 10 h: 1.4 ng/mL
  concentration at 12 h: 1.2 ng/mL
  concentration at 14 h: 1 ng/mL
  concentration at 24 h: 1.2 ng/mL
[6]
  Concentration: 0,0 ng/ml
